The target in one assay is MET (human) (Homo sapiens, UniProt P08581). Put plainly: MET (human) AlphaScreen kinase assay, Km of ATP. The assay is classed as biochemical. The settings on record: AlphaScreen, Km of ATP; read-out: Met biochemical IC50. On the procedure: Someone skilled in the art will appreciate that a variety of assay formats may be used to determine the activity of the compounds of this invention. For example, AlphaScreen (Amplified Luminescent Proximity Homogeneous Assay) technology was used with the kinases described below. Assay ATP concentrations for individual kinases are included in the text.
Desired compound is added in a final concentration of 1% DMSO with control being vehicle of DMSO alone. MET is diluted to the optimized concentration (optimized on a lot-by-lot basis) in an enzyme diluent buffer (50 mM Tris pH=7.4, 1% glycerol, 0.03% Brij35, 0.24 mM EGTA, 1 mM DTT, and 0.003% BSA). Enzyme is added to initiate the reaction and incubated for 60 min at RT. In subdued light, appropriate amount of PT66 donor and acceptor beads (diluted 1:260 from manufacturer's provision in a 25 mM Tris HCl (pH=7.5), 400 mM NaCl, 100 mM EDTA, 0.3% BSA buffer) are added to the wells. The plates, incubated for 1 h, are read on an AlphaQuest plate reader

The next assay has as its target RON (human) (Homo sapiens, UniProt Q04912). The experiment in a line: RON (human) AlphaScreen kinase assay, Km of ATP. Conditions: AlphaScreen, Km of ATP; read-out: RON biochemical IC50. The assay is classed as biochemical. In outline:
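Reaction was started with enzyme and run 30 min at RT. PT66 donor/acceptor beads in an EDTA-containing Tris pH 7.5 buffer were then added, and the signal was read after 1 h.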
Background: Alpha assays give light when donor and acceptor beads are brought close together.

Each structure is given as a SMILES string. Where only a bound is given, the exact number is not on record here.

RON (human), sequence (Q04912 25-1400): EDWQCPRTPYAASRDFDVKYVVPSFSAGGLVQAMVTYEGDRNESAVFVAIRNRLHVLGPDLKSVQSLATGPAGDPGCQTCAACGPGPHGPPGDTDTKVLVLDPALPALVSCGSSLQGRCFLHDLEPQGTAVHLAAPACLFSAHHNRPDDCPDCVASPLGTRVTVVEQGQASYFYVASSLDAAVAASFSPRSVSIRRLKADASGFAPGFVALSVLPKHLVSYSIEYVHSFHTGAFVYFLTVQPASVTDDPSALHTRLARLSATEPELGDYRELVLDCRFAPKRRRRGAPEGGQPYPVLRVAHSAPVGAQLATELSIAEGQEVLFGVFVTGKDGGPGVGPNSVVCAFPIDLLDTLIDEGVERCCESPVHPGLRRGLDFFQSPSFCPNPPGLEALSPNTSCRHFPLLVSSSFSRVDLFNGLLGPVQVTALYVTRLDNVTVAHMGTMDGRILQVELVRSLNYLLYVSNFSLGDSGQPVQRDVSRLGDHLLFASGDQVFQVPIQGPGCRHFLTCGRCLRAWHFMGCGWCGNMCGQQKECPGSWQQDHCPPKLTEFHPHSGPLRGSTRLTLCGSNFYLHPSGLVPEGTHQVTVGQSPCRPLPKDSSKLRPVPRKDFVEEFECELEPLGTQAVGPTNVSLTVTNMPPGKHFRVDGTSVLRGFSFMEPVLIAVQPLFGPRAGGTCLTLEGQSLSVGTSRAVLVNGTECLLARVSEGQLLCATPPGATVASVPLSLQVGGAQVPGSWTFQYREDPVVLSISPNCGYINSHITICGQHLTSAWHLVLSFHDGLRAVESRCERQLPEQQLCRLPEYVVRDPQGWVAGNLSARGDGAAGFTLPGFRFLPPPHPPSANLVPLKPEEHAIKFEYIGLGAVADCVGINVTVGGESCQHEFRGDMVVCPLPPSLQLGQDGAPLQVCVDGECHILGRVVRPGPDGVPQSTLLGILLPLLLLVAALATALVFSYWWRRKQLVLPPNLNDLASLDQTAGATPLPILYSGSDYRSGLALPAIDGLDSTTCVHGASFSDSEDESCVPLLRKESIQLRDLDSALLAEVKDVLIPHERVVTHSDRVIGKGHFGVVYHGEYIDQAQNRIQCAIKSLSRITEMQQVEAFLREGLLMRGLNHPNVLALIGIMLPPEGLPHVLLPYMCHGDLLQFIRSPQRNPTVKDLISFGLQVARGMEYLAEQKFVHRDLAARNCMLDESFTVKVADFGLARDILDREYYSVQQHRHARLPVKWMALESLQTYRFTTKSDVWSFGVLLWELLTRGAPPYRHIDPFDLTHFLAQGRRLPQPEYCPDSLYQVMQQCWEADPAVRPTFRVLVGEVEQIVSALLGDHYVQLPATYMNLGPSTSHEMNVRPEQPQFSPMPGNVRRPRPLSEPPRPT
MET (human), sequence (P08581 25-1390): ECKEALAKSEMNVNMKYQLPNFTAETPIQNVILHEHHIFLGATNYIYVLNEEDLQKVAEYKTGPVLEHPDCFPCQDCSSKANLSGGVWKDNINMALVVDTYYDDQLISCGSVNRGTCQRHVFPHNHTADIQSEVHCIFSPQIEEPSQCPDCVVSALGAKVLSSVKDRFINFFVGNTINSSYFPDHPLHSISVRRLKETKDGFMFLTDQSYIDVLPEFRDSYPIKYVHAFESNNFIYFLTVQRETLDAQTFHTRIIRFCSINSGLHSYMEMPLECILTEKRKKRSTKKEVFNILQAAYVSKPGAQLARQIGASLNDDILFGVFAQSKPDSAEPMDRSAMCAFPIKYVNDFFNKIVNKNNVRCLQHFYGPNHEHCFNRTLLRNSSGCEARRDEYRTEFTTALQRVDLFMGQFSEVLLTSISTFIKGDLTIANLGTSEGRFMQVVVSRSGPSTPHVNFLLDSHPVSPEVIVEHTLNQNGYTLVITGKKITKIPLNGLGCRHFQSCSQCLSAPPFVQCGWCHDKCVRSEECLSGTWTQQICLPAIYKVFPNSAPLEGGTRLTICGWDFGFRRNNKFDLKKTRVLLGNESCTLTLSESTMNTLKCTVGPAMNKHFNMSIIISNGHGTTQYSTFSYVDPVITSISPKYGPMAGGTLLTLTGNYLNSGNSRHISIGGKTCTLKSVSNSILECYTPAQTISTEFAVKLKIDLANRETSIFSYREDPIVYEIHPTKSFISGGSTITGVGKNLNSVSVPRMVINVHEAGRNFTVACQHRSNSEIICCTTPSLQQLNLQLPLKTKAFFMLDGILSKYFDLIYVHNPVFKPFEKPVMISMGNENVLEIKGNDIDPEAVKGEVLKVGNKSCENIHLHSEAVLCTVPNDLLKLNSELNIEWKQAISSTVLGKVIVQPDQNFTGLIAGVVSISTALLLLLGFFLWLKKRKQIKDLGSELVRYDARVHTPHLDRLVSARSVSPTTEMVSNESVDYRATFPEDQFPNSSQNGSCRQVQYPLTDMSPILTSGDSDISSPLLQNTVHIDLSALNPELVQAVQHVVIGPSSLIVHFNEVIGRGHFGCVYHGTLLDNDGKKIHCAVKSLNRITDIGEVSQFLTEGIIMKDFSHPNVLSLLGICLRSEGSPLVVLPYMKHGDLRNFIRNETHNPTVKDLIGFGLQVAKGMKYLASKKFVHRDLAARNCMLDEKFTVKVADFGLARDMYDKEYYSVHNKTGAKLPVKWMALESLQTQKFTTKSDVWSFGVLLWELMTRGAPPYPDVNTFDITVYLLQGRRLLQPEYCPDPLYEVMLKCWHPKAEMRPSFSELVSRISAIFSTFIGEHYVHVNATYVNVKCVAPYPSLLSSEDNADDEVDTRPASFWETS

As usually defined, the IC50 is the point on the concentration scale where inhibition reaches its midpoint. On to `CCOC(=O)N1CC=C(c2coc3c(O[C@H](C)c4c(Cl)ccc(F)c4Cl)c(N)ncc23)CC1` [Example 51, 4-{6-Amino-7-[(R)-1-(2,6-dichloro-3-fluorophenyl)-ethoxy]-furo[3,2-c]pyridin-3-yl}-3,6-dihydro-2H-pyridine-1-carboxylic acid ethyl ester], for which the IC50 at MET (human) and on RON (human) was 500 to 5000 nM in each case.

With `CCCOC(=O)N1CC=C(c2coc3c(O[C@H](C)c4c(Cl)ccc(F)c4Cl)c(N)ncc23)CC1` [Example 52, 4-{6-Amino-7-[(R)-1-(2,6-dichloro-3-fluorophenyl)-ethoxy]-furo[3,2-c]pyridin-3-yl}-3,6-dihydro-2H-pyridine-1-carboxylic acid propyl ester], the IC50 on MET (human) and on RON (human) was 500 to 5000 nM throughout.

As for `CC(C)OC(=O)N1CC=C(c2coc3c(O[C@H](C)c4c(Cl)ccc(F)c4Cl)c(N)ncc23)CC1` [Example 53, 4-{6-Amino-7-[(R)-1-(2,6-dichloro-3-fluorophenyl)-ethoxy]-furo[3,2-c]pyridin-3-yl}-3,6-dihydro-2H-pyridine-1-carboxylic acid isopropyl ester], the concentration for half-maximal inhibition (IC50) at MET (human) and at RON (human) was 500 to 5000 nM each time.

With `C[C@@H](Oc1c(N)ncc2c(C3=CCN(C(=O)OC4CCCC4)CC3)coc12)c1c(Cl)ccc(F)c1Cl` [Example 54, 4-{6-Amino-7-[(R)-1-(2,6-dichloro-3-fluorophenyl)-ethoxy]-furo[3,2-c]pyridin-3-yl}-3,6-dihydro-2H-pyridine-1-carboxylic acid cyclopentyl ester], the IC50 on MET (human) and on RON (human) was 500 to 5000 nM throughout.

Turning to `C[C@@H](Oc1c(N)ncc2c(C3=CCN(C(=O)Oc4ccccc4)CC3)coc12)c1c(Cl)ccc(F)c1Cl` [Example 55, 4-{6-Amino-7-[(R)-1-(2,6-dichloro-3-fluorophenyl)-ethoxy]-furo[3,2-c]pyridin-3-yl}-3,6-dihydro-2H-pyridine-1-carboxylic acid phenyl ester], the IC50 on MET (human) was below 500 nM; on RON (human), 500 to 5000 nM.

On to `C[C@@H](Oc1c(N)ncc2c(C3=CCN(C(=O)C(F)(F)F)CC3)coc12)c1c(Cl)ccc(F)c1Cl` [Example 56, 1-(4-{6-Amino-7-[(R)-1-(2,6-dichloro-3-fluorophenyl)-ethoxy]-furo[3,2-c]pyridin-3-yl}-3,6-dihydro-2H-pyridin-1-yl)-2,2,2-trifluoroethanone], for which the IC50 on MET (human) and at RON (human) was 500 to 5000 nM in each case.

Turning to `C[C@@H](Oc1c(N)ncc2c(-c3cccc(CO)c3)coc12)c1c(Cl)ccc(F)c1Cl` [Example 57, (3-{6-Amino-7-[(R)-1-(2,6-dichloro-3-fluorophenyl)ethoxy]-furo[3,2-c]pyridin-3-yl}phenyl)methanol], the IC50 on MET (human) and at RON (human) was 500 to 5000 nM each time.

`CC(=O)Nc1ccc(-c2coc3c(O[C@H](C)c4c(Cl)ccc(F)c4Cl)c(N)ncc23)cc1` [Example 58, N-(4-{6-Amino-7-[(R)-1-(2,6-dichloro-3-fluorophenyl)ethoxy]-furo[3,2-c]pyridin-3-yl}phenyl)acetamide]: the IC50 on MET (human) and on RON (human) was 500 to 5000 nM in each case.

For `C[C@@H](Oc1c(N)ncc2c(-c3ccc(O)cc3)coc12)c1c(Cl)ccc(F)c1Cl` [Example 59, 4-{6-Amino-7-[(R)-1-(2,6-dichloro-3-fluorophenyl)ethoxy]-furo[3,2-c]pyridin-3-yl}phenol], the IC50 on MET (human) and at RON (human) was 500 to 5000 nM each time.

As to `COc1cccc(-c2coc3c(O[C@H](C)c4c(Cl)ccc(F)c4Cl)c(N)ncc23)c1` [Example 60, 7-[(R)-1-(2,6-Dichloro-3-fluorophenyl)ethoxy]-3-(3-methoxy-phenyl)furo[3,2-c]pyridin-6-ylamine], the figures for the IC50 on MET (human) and on RON (human) were 500 to 5000 nM and 5000 to 20000 nM, respectively.

Take `C[C@@H](Oc1c(N)ncc2c(-c3ccc(S(C)(=O)=O)cc3)coc12)c1c(Cl)ccc(F)c1Cl` [Example 62, 7-[(R)-1-(2,6-Dichloro-3-fluorophenyl)ethoxy]-3-(4-methane-sulfonylphenyl)furo[3,2-c]pyridin-6-ylamine]: the half-inhibitory concentration (IC50) at MET (human) and on RON (human) was 500 to 5000 nM throughout.

On to `C[C@@H](Oc1c(N)ncc2c(-c3ccc(C(N)=O)cc3)coc12)c1c(Cl)ccc(F)c1Cl` [Example 63, 4-{6-Amino-7-[(R)-1-(2,6-dichloro-3-fluorophenyl)ethoxy]-furo[3,2-c]pyridin-3-yl}benzamide], for which the IC50 at MET (human) and at RON (human) was 500 to 5000 nM in each case.

As for `C[C@@H](Oc1c(N)ncc2c(-c3ccc(CO)cc3)coc12)c1c(Cl)ccc(F)c1Cl` [Example 64, (4-{6-Amino-7-[(R)-1-(2,6-dichloro-3-fluorophenyl)ethoxy]-furo[3,2-c]pyridin-3-yl}-phenyl)methanol], the IC50 at MET (human) and on RON (human) was 500 to 5000 nM each time.

In the case of `C[C@@H](Oc1c(N)ncc2c(-c3ccc(C(=O)O)cc3)coc12)c1c(Cl)ccc(F)c1Cl` [Example 65, 4-{6-Amino-7-[(R)-1-(2,6-dichloro-3-fluorophenyl)ethoxy]-furo[3,2-c]pyridin-3-yl}benzoic Acid], the IC50 at MET (human) and on RON (human) was 500 to 5000 nM throughout.

In the case of `C[C@@H](Oc1c(N)ncc2c(-c3cccc(N)c3)coc12)c1c(Cl)ccc(F)c1Cl` [Example 66, 3-(3-Aminophenyl)-7-[(R)-1-(2,6-dichloro-3-fluorophenyl)ethoxy]-furo[3,2-c]pyridin-6-ylamine], the IC50 on MET (human) and at RON (human) was 500 to 5000 nM throughout.

For `C[C@@H](Oc1c(N)ncc2c(-c3cccc(S(C)(=O)=O)c3)coc12)c1c(Cl)ccc(F)c1Cl` [Example 67, 7-[(R)-1-(2,6-Dichloro-3-fluor-phenyl)ethoxy]-3-(3-methane-sulfonylphenyl)-furo[3,2-c]pyridin-6-ylamine], the IC50 on MET (human) was below 500 nM; at RON (human), 500 to 5000 nM.

As for `CNC(=O)c1cccc(-c2coc3c(O[C@H](C)c4c(Cl)ccc(F)c4Cl)c(N)ncc23)c1` [Example 68, 3-{6-Amino-7-[(R)-1-(2,6-dichloro-3-fluorophenyl)ethoxy]-furo[3,2-c]pyridin-3-yl}-N-methylbenzamide], the IC50 on MET (human) and at RON (human) was 500 to 5000 nM each time.

As for `COc1ccc(-c2coc3c(O[C@H](C)c4c(Cl)ccc(F)c4Cl)c(N)ncc23)cc1` [Example 69, 7-[(R)-1-(2,6-Dichloro-3-fluorophenyl)ethoxy]-3-(4-methoxyphenyl)-furo[3,2-c]pyridin-6-ylamine], the IC50 at MET (human) and on RON (human) was 500 to 5000 nM each time.

For the compound `C[C@@H](Oc1c(N)ncc2c(-c3cccc(C(N)=O)c3)coc12)c1c(Cl)ccc(F)c1Cl` [Example 70, 3-{6-Amino-7-[(R)-1-(2,6-dichloro-3-fluorophenyl)ethoxy]-furo[3,2-c]pyridin-3-yl}benzamide], the IC50 at MET (human) and at RON (human) was 500 to 5000 nM in each case.

As for `C[C@@H](Oc1c(N)ncc2c(-c3ccc(C(=O)NCCN(C)C)cc3)coc12)c1c(Cl)ccc(F)c1Cl` [Example 71, 4-{6-Amino-7-[(R)-1-(2,6-dichloro-3-fluorophenyl)ethoxy]-furo[3,2-c]pyridin-3-yl}-N-(2-dimethylaminoethyl)benzamide], the IC50 at MET (human) and at RON (human) was below 500 nM each time.

(Values after patent US8022206B2 (OSI Pharmaceuticals, LLC, priority 2008, dated 2011).)
